Test results reported in paper PMC4767422, “Molecular insights into the enzymatic diversity of flavin‐trafficking protein (Ftp; formerly ApbE) in flavoprotein biogenesis in the bacterial periplasm” (MicrobiologyOpen, 2015).
Positions count from the first letter of the chain named.

Legend:
Ftp_Ec [1] = target: T1, Ftp_Ec (Escherichia coli, UniProt P0AB85, Y79N); test: crystal structure, […]-1.[…] A; also inhibits FAD pyrophosphatase activity; type: binding; conditions: two Mg2+ bound; active site
T1 construct: gene apbE; recombinant, ligand-free preparation as in Deka et al. 2013a; signal peptide removed; crystal model residues about 12-341
T1 sequence (P0AB85 21-351 Y79N): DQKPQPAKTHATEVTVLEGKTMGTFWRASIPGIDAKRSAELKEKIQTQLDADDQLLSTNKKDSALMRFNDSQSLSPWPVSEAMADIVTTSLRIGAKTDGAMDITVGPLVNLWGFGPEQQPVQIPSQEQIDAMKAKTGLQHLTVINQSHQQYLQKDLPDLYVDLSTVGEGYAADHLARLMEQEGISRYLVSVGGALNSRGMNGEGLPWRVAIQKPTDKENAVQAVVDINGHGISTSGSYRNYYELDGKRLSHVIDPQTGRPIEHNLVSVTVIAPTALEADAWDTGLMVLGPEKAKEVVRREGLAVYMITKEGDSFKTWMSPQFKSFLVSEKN

Ftp_Td = target: T2, Ftp_Td (Treponema denticola, UniProt Q73JG1); test: FAD pyrophosphatase assay, FMN fluorescence; type: biochemical; conditions: 10 uM FAD, 5 mM MgCl2, pH 7.5; single turnover
T2 construct: gene TDE_2614; residues 28-372, signal peptide and acylated Cys removed, N-terminal TEV-cleavable His6 tag (pSpeedET), E. coli
T2 sequence (Q73JG1 28-371): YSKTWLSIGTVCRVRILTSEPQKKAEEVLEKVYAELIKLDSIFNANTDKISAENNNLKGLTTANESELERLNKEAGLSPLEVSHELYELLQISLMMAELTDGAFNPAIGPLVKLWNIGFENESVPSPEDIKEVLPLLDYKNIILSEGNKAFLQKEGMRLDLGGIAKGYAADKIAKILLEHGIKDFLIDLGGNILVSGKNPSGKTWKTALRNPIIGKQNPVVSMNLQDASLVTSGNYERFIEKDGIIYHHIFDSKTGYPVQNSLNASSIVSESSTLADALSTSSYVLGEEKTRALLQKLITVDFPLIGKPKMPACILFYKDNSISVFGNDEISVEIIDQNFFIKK

Ftp_Ab = target: T3, Ftp_Ab (Alcanivorax borkumensis, UniProt Q0VQR2); test: UV-visible spectrum of protein as isolated; type: binding; conditions: co-purified flavin, nonstoichiometric; buffer A, pH 7.5
T3 construct: gene apbE; residues 21-338, signal peptide and acylated Cys removed, N-terminal TEV-cleavable His6 tag (pSpeedET), E. coli
T3 sequence (Q0VQR2 20-337): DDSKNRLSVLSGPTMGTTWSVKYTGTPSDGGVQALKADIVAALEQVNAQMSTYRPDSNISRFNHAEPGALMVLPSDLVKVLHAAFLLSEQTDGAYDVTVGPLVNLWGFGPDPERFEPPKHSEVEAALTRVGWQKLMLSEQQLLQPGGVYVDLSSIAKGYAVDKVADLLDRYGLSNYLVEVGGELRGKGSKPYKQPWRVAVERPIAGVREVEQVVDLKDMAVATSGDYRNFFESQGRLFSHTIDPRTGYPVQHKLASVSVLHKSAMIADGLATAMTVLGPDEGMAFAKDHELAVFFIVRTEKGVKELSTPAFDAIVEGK

Ftp_Ec [2] = target: T4, Ftp_Ec (Escherichia coli, UniProt P0AB85); test: fluorescence decrease on FAD binding; flavinylation gel; type: biochemical; conditions: binds FAD without hydrolysis; FMN donor to RnfG_Ec with 5 mM MgCl2, pH 7.5
T4 construct: gene apbE; recombinant, ligand-free preparation as in Deka et al. 2013a; signal peptide removed; crystal model residues about 12-341
T4 sequence (P0AB85 21-351): T1 sequence (P0AB85 21-351 Y79N) with N59Y

Ftp_Ef = target: T5, Ftp_Ef (Enterococcus faecalis, UniProt Q82Z24); test: FAD pyrophosphatase assay, FMN fluorescence; type: biochemical; conditions: 10 uM FAD, 5 mM MgCl2, pH 7.5; single turnover
T5 construct: gene EF_3255; residues 21-356, signal peptide and acylated Cys removed, N-terminal TEV-cleavable His6 tag (pSpeedET), E. coli
T5 sequence (Q82Z24 22-355): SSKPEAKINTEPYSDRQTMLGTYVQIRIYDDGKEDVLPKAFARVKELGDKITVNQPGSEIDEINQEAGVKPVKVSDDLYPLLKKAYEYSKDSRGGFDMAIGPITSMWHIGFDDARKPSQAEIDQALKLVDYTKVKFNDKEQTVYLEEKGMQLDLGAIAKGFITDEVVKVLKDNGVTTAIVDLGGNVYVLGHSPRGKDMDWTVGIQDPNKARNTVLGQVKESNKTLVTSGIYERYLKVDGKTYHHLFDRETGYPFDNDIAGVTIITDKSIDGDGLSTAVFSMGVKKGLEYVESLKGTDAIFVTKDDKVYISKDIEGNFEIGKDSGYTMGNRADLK

Ftp_Lm = target: T6, Ftp_Lm (Listeria monocytogenes, UniProt A0A0H3GJF7); test: FAD pyrophosphatase assay, FMN fluorescence; type: biochemical; conditions: 10 uM FAD, 5 mM MgCl2, pH 7.5; single turnover
T6 construct: gene LMRG_02181; residues 22-361, signal peptide and acylated Cys removed, N-terminal TEV-cleavable His6 tag (pSpeedET), E. coli
T6 sequence (A0A0H3GJF7 21-360): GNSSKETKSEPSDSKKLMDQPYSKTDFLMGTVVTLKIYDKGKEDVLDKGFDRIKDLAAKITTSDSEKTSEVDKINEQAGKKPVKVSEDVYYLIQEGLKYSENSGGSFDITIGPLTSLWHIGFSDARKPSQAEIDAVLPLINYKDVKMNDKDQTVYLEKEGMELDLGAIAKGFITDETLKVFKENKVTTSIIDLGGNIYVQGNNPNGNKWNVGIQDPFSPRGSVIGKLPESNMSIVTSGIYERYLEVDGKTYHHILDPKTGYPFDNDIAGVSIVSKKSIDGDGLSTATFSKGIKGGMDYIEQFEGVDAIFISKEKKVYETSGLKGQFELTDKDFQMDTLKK

Ftp_Hd = target: T7, Ftp_Hd ([Haemophilus] ducreyi, UniProt Q7VNU3); test: UV-visible spectrum of protein as isolated; type: binding; conditions: co-purified flavin, nonstoichiometric; buffer A, pH 7.5
T7 construct: gene apbE; residues 17-343, signal peptide and acylated Cys removed, N-terminal TEV-cleavable His6 tag (pSpeedET), E. coli
T7 sequence (Q7VNU3 16-342): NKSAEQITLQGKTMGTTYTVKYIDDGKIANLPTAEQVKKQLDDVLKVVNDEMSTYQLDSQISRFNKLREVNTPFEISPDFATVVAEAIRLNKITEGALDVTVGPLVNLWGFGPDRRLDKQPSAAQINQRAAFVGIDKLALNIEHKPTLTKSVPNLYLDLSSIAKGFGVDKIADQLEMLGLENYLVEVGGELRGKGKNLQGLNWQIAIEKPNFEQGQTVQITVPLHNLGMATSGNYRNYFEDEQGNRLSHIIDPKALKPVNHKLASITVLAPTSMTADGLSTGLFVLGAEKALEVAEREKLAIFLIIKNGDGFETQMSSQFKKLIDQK

NqrC_So = target: T8, NqrC_So (Shewanella oneidensis, UniProt Q8EID8); test: crystal structure, […] A; type: binding; conditions: covalent phosphoester-threonyl-FMN at T225, formed in vitro by Ftp_So from FAD and Mg2+
T8 construct: gene nqrC; residues 32-265, without N-terminal membrane anchor; recloned into pProEx HTb; His tag cut with TEV after flavinylation
T8 sequence (Q8EID8 32-264): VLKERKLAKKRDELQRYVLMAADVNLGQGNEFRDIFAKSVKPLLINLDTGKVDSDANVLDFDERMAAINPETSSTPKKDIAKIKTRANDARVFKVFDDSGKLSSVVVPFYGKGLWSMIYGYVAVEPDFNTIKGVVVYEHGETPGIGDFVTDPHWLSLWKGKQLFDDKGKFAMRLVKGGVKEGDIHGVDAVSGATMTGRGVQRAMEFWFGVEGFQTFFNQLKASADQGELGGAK

Nc1ncnc2c1ncn2[C@@H]1O[C@H](COP(=O)(O)OP(=O)(O)O)[C@@H](O)[C@H]1O [ADP]
crystal structure, 1.85-1.90 A; also inhibits FAD pyrophosphatase activity (Ftp_Ec [1]): we obtained a crystal structure of the ADP complex with two metals bound

Cc1cc2nc3c(=O)[nH]c(=O)nc-3n(C[C@H](O)[C@H](O)[C@H](O)COP(=O)(O)OP(=O)(O)OC[C@H]3O[C@@H](n4cnc5c(N)ncnc54)[C@H](O)[C@@H]3O)c2cc1C [FAD]
FAD pyrophosphatase assay, FMN fluorescence (Ftp_Td): all nonyellow Ftps showed single‐turnover kinetics of FAD pyrophosphatase activity | UV-visible spectrum of protein as isolated (Ftp_Ab): purified as yellow, flavin‐bound forms (holoproteins) | fluorescence decrease on FAD binding; flavinylation gel (Ftp_Ec [2]): wild‐type Ftp_Ec (in orange) binds FAD as demonstrated by a decrease in the emission fluorescence | FAD pyrophosphatase assay, FMN fluorescence (Ftp_Ef): all nonyellow Ftps showed single‐turnover kinetics of FAD pyrophosphatase activity | FAD pyrophosphatase assay, FMN fluorescence (Ftp_Lm): all nonyellow Ftps showed single‐turnover kinetics of FAD pyrophosphatase activity | UV-visible spectrum of protein as isolated (Ftp_Hd): purified as yellow, flavin‐bound forms (holoproteins)

Cc1cc2nc3c(=O)[nH]c(=O)nc-3n(C[C@H](O)[C@H](O)[C@H](O)COP(=O)(O)O)c2cc1C [FMN]
crystal structure, 1.76 A (NqrC_So): The modified threonine (T225) lies at the N‐terminal end of the C‐terminal alpha helix
